Data from US20240287054A1, “COMPOUNDS THAT BIND NON-CANONICAL G-QUADRUPLEX STRUCTURES AND METHODS OF MAKING AND USING THE SAME” (The U.S.A., as Represented by the Secretary, Department of …, priority 2021, published 2024).

Tests used:
MYCN G4 DNA = experiment: Fluorescence quenching of position-labeled MYCN G4 (2-AP at A11/A18/A24, 5′/3′-Cy5); type: binding, human
Method: Fluorescence intensity assay. In this disclosure, fluorescence intensity assay (FIA) was used for both validation of hit binding at a single dose and binding affinity determination. For validating hit compounds from SMM screening, 100 μM solution of each compound was prepared in triplicate in a 96 well-plate (Costar, black side clear bottom), resulting in 5% DMSO concentration. 5′Cy5-labeled MYCN G4 DNA was annealed as described above, then added into the well plate resulting in a final concentration of 100 nM. The plate was incubated shaking for 30 min, followed by centrifuging at 500 rpm for 2 minutes. The fluorescence intensity was then measured on a Synergy Mx microplate reader (BioTek) at Ex 649 nm/Em 670 nm. TMPyP4/DMSO were used as positive and negative controls, respectively. In certain examples, compounds were considered binders when a change of >10% change in fluorescence intensity was observed compared to that of negative control (DMSO solution). For binding affinity measurement, small molecule solutions were prepared as serial dilutions in DMSO. Then a final test plate was prepared by adding 5 μL small molecule solutions and 10 μL annealed DNA samples into 85 μL buffer solutions, resulting in the final small molecule concentrations from 0 to 250 μM (5% final DMSO concentration). The fluorescence intensities were normalized, and the binding affinity was calculated by fitting the curve using one-site total model in GraphPad Prism 8.3.1 software. The fluorescence titration using 3′-labeled oligonucleotides was also performed the same way.
2-Aminopurine (2-AP) fluorescence titration. Fluorescence titrations based on 2-aminopurine labeling were performed using the protocol reported previously. Briefly, MYCN G4 oligonucleotide with a 2-AP substitution at either A11 or A18 position was annealed by heating the sample to 95° C. for 5 min and cooling down to RT slowly. The oligonucleotide with folded structure was diluted to 10 μM in Tris buffer (10 mM Tris, pH7.0, 100 mM KCl, 0.005% Tween 20) and prepared in a black 96-well plate (Costar) in triplicate as designed. Small molecules were diluted in DMSO to obtain a series of solutions with concentrations ranging from 0.1 to 5 mM, and then diluted by 20 times added into the plate (5% DMSO final concentration). The final concentration of 2-AP DNA was 1 μM in the well plate. To obtain the background fluorescence, small molecule solutions without DNA were also prepared in the same plate. After incubation for 30 min at RT, the plate was briefly centrifuged and scanned in Synergy Mx microplate reader (BioTek) with Ex 310 nm/Em 365 nm. Fluorescence signals were calculated by averaging the intensities in triplicate wells after subtracting the references. Finally, the binding signals were normalized and the KD value was determined by fitting the curve using a nonlinear sigmoidal dose-response model with a variable slope in GraphPad Prism 8.3.1 software.
To further understand the binding details between compound MY-1 and MYCN G4, a series of FIA studies were designed and performed. […] After incubating 100 μM MY-1 with labeled DNA samples, fluorescence intensities were measured and compared to DMSO controls. Fluorescence of the A11 2-AP DNA sample was quenched by almost 100%, while the quenching percentages were 80% and 70% for A18 and A24 2-AP DNAs, respectively (FIG. 24B, FIGS. 25A-25C). […]

[1] = tested on: MYCN G4 DNA (hairpin minor groove); experiment: Fluorescence displacement assay with Hoechst 33258; type: binding, human
Method: Fluorescence displacement assay. Fluorescence displacement assays were carried out by using two classical minor groove binders (Hoechst 33258 and netropsin). Hoechst 33258, as a fluorophore, was prepared at 5 μM concentration in the buffer (10 mM Tris, pH7.0, 100 mM KCl), and then titrated with different concentrations of unlabeled MYCN G4 oligonucleotides. For displacement, either compound MY-1 or netropsin was added into the solution resulting in a final concentration of 5 μM or 50 μM. Fluorescence signals were obtained with an excitation wavelength of 352 nm and an emission wavelength of 500 nm.

BCL2 HP-G4 = experiment: FIA binding test with BCL2 HP-G4 (parallel structure)
Method: (§1) In this study, FIA was used for validating the bindings between certain bivalent and MYCN G4 oligos. To measure the binding affinity, a solution of each compound was prepared in triplicate in a 96 well-plate (Costar, black side clear bottom), resulting in a final concentration of 100 nM (5% final DMSO in the working solution). Unlabeled MYCN G4 DNA was folded based on the above-mentioned annealing method, then added into the well plate resulting in different concentrations by a seral dilution. The plate was incubated at room temperature for 30 min, followed by centrifuging at 500 rpm for 2 minutes. The fluorescence intensity was then quantitatively recorded by a Synergy Mx microplate reader (BioTek) at Ex 340 nm/Em 500 nm. The fluorescence intensities were then normalized, and the binding affinity was calculated by fitting the curve using one-site total model in GraphPad Prism 8.3.1 software.
(§2) In addition to the DMS-footprinting study, the bivalent binding mode of compound B33 toward MYCN hairpin-G4 was also investigated by comparing HP-G4s with different folding types. Four reported HP-G4s with parallel structure (BCL2), (3+1) hybrid structure (HIV and PIM1-form1), and (2+2) chair-type structure (PIM1-form2) were examined by FIA binding test using compound B33 (FIGS. 41A, 41B, 42A, 42B, 43A, 43B, 44A, and 44B). […]

PIM1-form1 HP-G4 = experiment: FIA binding test with PIM1-form1 HP-G4 ((3+1) hybrid structure)
Method: as §1, §2

Row | SMILES | fluorescence quenching, 3′-Cy5 labeled oligo (MYCN G4 DNA; 100 μM MY-1) | fluorescence quenching, 5′-Cy5 labeled oligo (MYCN G4 DNA; 100 μM MY-1) | fluorescence quenching, A11 2-AP DNA (MYCN G4 DNA; 100 μM MY-1 vs DMSO control) | fluorescence quenching, A18 2-AP DNA (MYCN G4 DNA; 100 μM MY-1 vs DMSO control) | fluorescence quenching, A24 2-AP DNA (MYCN G4 DNA; 100 μM MY-1 vs DMSO control) | displacement of Hoechst 33258 at 5 μM ([1]; 5 μM competitor) | displacement of Hoechst 33258 at 50 μM ([1]; 50 μM competitor) | fold weaker than MYCN HP-G4 (BCL2 HP-G4; BCL2 HP-G4 vs MYCN HP-G4) | Kd (BCL2 HP-G4; FIA) | Kd (PIM1-form1 HP-G4)
1 | COc1ccc(-c2noc(-c3ccc(NCCCN4CCCC4)nn3)n2)cc1 [MY-1, 6-(3-(4-methoxyphenyl)-1,2,4-oxadiazol-5-yl)-N-(3-(pyrrolidin-1-yl)propyl)pyridazin-3-amine] | 0% | 15% | ~100% | 80% | 70% | no measurable change | partial fluorescence decrease |  |  | 
2 | COc1ccc(-c2noc(-c3ccc(NCCCNc4c5ccc(Cl)cc5nc5ccc(OC)cc45)nn3)n2)cc1 [B33, N^1-(6-chloro-2-methoxyacridin-9-yl)-N^3-(6-(3-(4-methoxyphenyl)-1,2,4-oxadiazol-5-yl)pyridazin-3-yl)propane-1,3-diamine] |  |  |  |  |  |  |  | ~4 times | 0.258 ± 0.039 µM | 0.279 ± 0.032 µM
